Laboratory results taken from patent US12649723B2, “Carbonohydrazonoyl dicyanide compounds comprising 2 or more aryl or heteroaryl connected via linker and use thereof” (KOREA INSTITUTE OF SCIENCE AND TECHNOLOGY, priority 2020, dated 2026).

Legend:
tau protein = biological target: T1, tau protein (Homo sapiens, UniProt P10636); assay: Tau-BiFC cell model: inhibition of tau protein aggregation; type: cell-based; conditions: for remaining activity at 10 µM: 48 h, compound 10 μM, BiFC fluorescence, Forskolin-only group = 100% tau protein-aggregated state, read-out: Response (% @10 μM); for IC50: Tau BiFC in cells, with Forskolin 30 μM, 48 hours
T1 construct: fused on or other part: Split fluorescent-protein halves for BiFC are fused to tau; In the published tau-BiFC line these are Venus VN173 and VC155
T1 sequence (P10636 2-441 isoform P10636-8 limits assumed): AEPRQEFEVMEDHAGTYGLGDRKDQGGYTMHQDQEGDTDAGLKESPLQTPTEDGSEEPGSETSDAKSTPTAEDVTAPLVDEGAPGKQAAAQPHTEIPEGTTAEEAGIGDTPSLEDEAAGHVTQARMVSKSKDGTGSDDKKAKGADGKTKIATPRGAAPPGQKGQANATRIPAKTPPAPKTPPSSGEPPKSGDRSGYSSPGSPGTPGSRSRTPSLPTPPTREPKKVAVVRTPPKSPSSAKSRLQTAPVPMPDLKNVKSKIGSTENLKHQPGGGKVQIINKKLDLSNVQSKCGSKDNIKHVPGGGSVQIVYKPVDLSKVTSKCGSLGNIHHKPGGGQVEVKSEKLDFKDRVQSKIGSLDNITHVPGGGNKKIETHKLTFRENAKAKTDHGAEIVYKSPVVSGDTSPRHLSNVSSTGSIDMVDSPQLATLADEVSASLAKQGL
In short: (§1)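 Aggregation was induced by 30 μM Forskolin co-applied with test compound for 48 h, with screening at 1, 3, 10 μM and dose-response at 0.03–30 μM. Nuclei were stained with Hoechst (2 μg/mL) and counted against Forskolin-only wells for cytotoxicity. Inhibition came from BiFC fluorescence relative to Forskolin-only versus untreated cells, with IC50 by nonlinear regression.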

Tau-BiFC cells = assay: Cell viability (cytotoxicity) in tau-BiFC cells, count of stained nuclei; type: cell-based; conditions: compound 10 μM; Forskolin-only group = 100% cell viability
In short: as §1

CYP1A2 = biological target: T2, CYP1A2 (Homo sapiens, UniProt P05177); assay: Inhibitory effect on CYP coenzyme activity, human liver microsomes; type: in vitro ADME; conditions: compound 10 μM; human liver microsomes 0.25 mg/mL; substrate phenacetin; 15 minutes
T2 construct: human liver microsomes (0.25 mg/mL); from tissue; host or cells: human liver microsomes
T2 sequence (P05177 1-516): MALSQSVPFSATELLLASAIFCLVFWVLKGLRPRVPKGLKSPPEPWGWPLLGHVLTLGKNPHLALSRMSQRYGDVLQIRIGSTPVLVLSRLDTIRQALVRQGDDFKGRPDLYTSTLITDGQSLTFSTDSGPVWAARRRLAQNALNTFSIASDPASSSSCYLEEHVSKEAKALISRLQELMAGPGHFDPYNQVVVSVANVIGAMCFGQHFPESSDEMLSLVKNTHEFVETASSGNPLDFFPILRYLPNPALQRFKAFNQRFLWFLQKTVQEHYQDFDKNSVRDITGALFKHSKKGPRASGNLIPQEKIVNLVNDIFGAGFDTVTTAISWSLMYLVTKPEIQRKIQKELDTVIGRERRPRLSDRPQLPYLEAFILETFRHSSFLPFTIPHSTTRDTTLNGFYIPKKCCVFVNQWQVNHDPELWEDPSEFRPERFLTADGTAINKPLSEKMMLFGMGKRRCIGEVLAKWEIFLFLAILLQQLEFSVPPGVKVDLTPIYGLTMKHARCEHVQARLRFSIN
In short: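 Inhibition of probe metabolism was assessed at a single 10 μM compound concentration against 0 μM, using 0.25 mg/mL liver microsomes and cocktail substrates (midazolam 2.5 μM, dextromethorphan 5 μM, S-mephenytoin 100 μM, diclofenac 10 μM, phenacetin 50 μM), with a 15-min NADPH-driven reaction at 37 °C.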

CYP2C19 = biological target: T3, CYP2C19 (Homo sapiens, UniProt P33261); assay: as above; type: in vitro ADME; conditions: compound 10 μM; human liver microsomes 0.25 mg/mL; substrate S-mephenytoin; 15 minutes
T3 construct: human liver microsomes (0.25 mg/mL); from tissue; host or cells: human liver microsomes
T3 sequence (P33261 whole entry): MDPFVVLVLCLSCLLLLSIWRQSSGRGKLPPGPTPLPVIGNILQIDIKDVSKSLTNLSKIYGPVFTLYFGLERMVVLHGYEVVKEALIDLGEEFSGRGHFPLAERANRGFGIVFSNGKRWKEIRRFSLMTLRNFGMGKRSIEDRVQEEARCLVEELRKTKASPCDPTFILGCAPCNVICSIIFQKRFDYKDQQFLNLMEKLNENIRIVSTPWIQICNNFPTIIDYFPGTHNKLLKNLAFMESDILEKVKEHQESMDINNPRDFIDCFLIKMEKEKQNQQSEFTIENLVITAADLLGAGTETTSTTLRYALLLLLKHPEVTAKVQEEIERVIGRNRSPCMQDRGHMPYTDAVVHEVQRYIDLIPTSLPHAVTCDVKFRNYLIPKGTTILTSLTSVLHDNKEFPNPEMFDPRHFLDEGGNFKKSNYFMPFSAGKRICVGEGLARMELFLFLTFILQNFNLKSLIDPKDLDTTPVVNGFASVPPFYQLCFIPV
In short: (§2)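 Read-out is LC-MS/MS (MRM) quantification of marker metabolites, compared between 10 μM compound and vehicle (0 μM). Microsomes (0.25 mg/mL, pH 7.4 phosphate) carried a five-probe cocktail including diclofenac 10 μM, S-mephenytoin 100 μM, dextromethorphan 5 μM and midazolam 2.5 μM, and were incubated 15 min at 37 °C with NADPH.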

CYP2C9 = biological target: T4, CYP2C9 (Homo sapiens, UniProt P11712); assay: as above; type: in vitro ADME; conditions: compound 10 μM; human liver microsomes 0.25 mg/mL; substrate diclofenac; 15 minutes
T4 construct: human liver microsomes (0.25 mg/mL); from tissue; host or cells: human liver microsomes
T4 sequence (P11712 whole entry): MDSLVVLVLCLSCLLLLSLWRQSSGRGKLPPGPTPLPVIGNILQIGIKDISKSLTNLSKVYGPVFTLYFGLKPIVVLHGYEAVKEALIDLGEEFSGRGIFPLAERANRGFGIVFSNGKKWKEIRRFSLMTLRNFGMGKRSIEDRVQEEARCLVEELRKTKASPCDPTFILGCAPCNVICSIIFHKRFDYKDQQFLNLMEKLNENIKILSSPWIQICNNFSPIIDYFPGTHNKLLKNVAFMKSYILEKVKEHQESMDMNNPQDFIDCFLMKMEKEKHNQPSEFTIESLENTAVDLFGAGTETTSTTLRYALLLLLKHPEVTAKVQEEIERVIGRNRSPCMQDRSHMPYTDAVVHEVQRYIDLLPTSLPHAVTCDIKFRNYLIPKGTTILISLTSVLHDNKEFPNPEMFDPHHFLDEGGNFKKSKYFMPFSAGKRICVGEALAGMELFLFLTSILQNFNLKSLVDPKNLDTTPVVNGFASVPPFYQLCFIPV
In short: as §2

CYP2D6 = biological target: T5, CYP2D6 (Homo sapiens, UniProt P10635); assay: as above; type: in vitro ADME; conditions: compound 10 μM; human liver microsomes 0.25 mg/mL; substrate dextromethorphan; 15 minutes
T5 construct: human liver microsomes (0.25 mg/mL); from tissue; host or cells: human liver microsomes
T5 sequence (P10635 whole entry): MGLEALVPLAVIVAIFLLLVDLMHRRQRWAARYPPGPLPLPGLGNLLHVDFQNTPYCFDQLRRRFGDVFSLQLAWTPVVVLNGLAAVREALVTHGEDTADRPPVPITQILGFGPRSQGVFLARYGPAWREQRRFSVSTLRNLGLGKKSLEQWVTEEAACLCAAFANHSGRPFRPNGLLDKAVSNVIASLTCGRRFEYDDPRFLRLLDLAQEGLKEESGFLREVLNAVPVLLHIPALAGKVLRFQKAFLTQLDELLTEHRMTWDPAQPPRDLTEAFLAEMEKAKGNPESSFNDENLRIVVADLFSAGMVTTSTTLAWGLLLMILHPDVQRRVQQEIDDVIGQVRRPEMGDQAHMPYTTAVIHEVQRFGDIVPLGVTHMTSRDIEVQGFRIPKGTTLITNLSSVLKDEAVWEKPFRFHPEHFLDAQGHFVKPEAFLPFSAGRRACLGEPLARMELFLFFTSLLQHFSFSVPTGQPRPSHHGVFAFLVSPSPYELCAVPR
In short: as §2

CYP3A4 = biological target: T6, CYP3A4 (Homo sapiens, UniProt P08684); assay: as above; type: in vitro ADME; conditions: compound 10 μM; human liver microsomes 0.25 mg/mL; substrate midazolam; 15 minutes
T6 construct: human liver microsomes (0.25 mg/mL); from tissue; host or cells: human liver microsomes
T6 sequence (P08684 whole entry): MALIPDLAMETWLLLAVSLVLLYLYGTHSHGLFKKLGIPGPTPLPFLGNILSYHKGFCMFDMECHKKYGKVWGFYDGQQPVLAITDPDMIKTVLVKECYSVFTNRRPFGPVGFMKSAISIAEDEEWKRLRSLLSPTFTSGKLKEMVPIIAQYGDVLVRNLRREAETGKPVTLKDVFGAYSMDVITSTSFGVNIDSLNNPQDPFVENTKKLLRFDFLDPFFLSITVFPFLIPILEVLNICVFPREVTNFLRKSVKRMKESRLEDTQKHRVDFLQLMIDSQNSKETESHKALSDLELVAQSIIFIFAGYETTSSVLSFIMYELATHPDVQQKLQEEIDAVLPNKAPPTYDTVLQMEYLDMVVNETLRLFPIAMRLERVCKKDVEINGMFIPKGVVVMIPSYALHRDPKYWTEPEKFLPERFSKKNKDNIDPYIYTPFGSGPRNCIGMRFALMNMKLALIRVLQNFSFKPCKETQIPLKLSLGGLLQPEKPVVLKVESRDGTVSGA
In short: as §2

[1] = Liver microsome stability; type: in vitro ADME, human; conditions: amount of substrate remaining; compound 1 μM, 30 minutes, 37° C., NADPH
In short: (§3)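 Human, dog, rat and mouse liver microsomes (0.25 mg/mL) with 1 μM compound in 0.1 M phosphate buffer pH 7.4, preincubated 5 min at 37° C, then incubated 30 min at 37° C with NADPH-generating system. Reaction stopped with acetonitrile containing internal standard; remaining parent quantified by LC-MS/MS.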

[2] = Liver microsome stability; type: in vitro ADME, dog; conditions: amount of substrate remaining; compound 1 μM, 30 minutes, 37° C., NADPH
Procedure: The stability of liver microsomes due to the compounds prepared according to Examples 1 to 175 was confirmed. Specifically, four types of liver microsomes (human, dog, rat, and mouse, each 0.25 mg/mL), a 0.1 M phosphate buffer solution (pH 7.4), and each of the compounds at a concentration of 1 μM were mixed and pre-cultured at 37° C. for 5 minutes and further cultured at 37° C. for 30 minutes together with an NADPH generation system solution added thereto. Thereafter, the reaction was terminated by adding an acetonitrile solution containing an internal standard material (chloropropamide) and centrifuged for 5 minutes (14,000 rpm, 4° C.), and then a supernatant was injected into an LC-MS/MS system for analysis of substrate drugs to thereby evaluate metabolic stability due to 8 types of compounds.
The amount of the substrate remaining after the reaction was analyzed using the Shimadzu Nexera XR system and TSQ Vantage (Thermo). In an HPLC column, Kinetex XB-C18 (2.1 mm×100 mm, particle size of 2.6 μm; Phenomenex, USA) was used, and mobile phases were (A) distilled water containing 0.1% formic acid and (B) acetonitrile containing 0.1% formic acid. Analyst software (version 1.6.3) and Xcalibur (version 1.6.1) were used for data analysis.

[3] = Liver microsome stability; type: in vitro ADME, rat; conditions: amount of substrate remaining; compound 1 μM, 30 minutes, 37° C., NADPH
In short: as §3

[4] = Liver microsome stability; type: in vitro ADME, mouse; conditions: amount of substrate remaining; compound 1 μM, 30 minutes, 37° C., NADPH
In short: as §3

Structure (SMILES)	remaining activity at 10 µM (tau protein) [%]	Cell viability (% @10 μM) (Tau-BiFC cells) [%]	CYP1A2 (CYP1A2)	CYP2C19 (CYP2C19)	CYP2C9 (CYP2C9)	CYP2D6 (CYP2D6)	CYP3A4 (CYP3A4)	Human (%) [1] [%]	Dog (%) [2] [%]	Rat (%) [3] [%]	Mouse (%) [4] [%]	IC50 (tau protein) [nM]
Cc1cnc(C(=O)Nc2ccc(NN=C(C#N)C#N)c(C)c2)cn1 [Compound 6, (2-methyl-4-(5-methylpyrazine-2-carboxamido)phenyl)carbonohydrazonoyl dicyanide]	43.9	61.3	85.2	64.8	38	75.7	62.2	77.5	>100	88.4	74.8	
N#CC(C#N)=NNc1ccc(NC(=O)c2ccc(C(F)(F)F)cc2)nc1 [Compound 27, (6-(4-(trifluoromethyl)benzamido)pyridin-3-yl)carbonohydrazonoyl dicyanide]	0	122	76.8	78.3	23.7	76	>100	86.9	3.6	8.8	5.4	370
Cc1cnc(C(=O)Nc2ccc(NN=C(C#N)C#N)cn2)cn1 [Compound 1, (6-(5-methylpyrazine-2-carboxamido)pyridin-3-yl)carbonohydrazonoyl dicyanide]	0	94.3	80.7	74.6	71.1	93.1	85	86.5	66.9	56.7	21.2	400
N#CC(C#N)=NNc1ccc(NC(=O)c2cccs2)nc1 [Compound 30, (6-(thiophene-2-carboxamido)pyridin-3-yl)carbonohydrazonoyl dicyanide]	0	145	83.9	81.5	62.9	89.9	95.2	94.8	84.7	72.4	70.7	80
Cc1cncc(NC(=O)c2ccc(NN=C(C#N)C#N)cc2)n1 [Compound 46, (4-(6-methylpyrazin-2-ylcarbamoyl)phenyl)carbonohydrazonoyl dicyanide]	0	155	97.8	83.1	70.4	>100	85.5	>100	>100	86.3	>100	860
Cc1cccc(C(=O)Nc2ccc(NN=C(C#N)C#N)cn2)c1F [Compound 20, (6-(2-fluoro-3-methylbenzamido)pyridin-3-yl)carbonohydrazonoyl dicyanide]	0	110.4	69.4	72	22.3	75.8	76.1	91.9	>100	33.7	68.3	180
Cc1cnc(C(=O)Nc2ccc(NN=C(C#N)C#N)c(F)c2)cn1 [Compound 3, (2-fluoro-4-(5-methylpyrazine-2-carboxamido)phenyl)carbonohydrazonoyl dicyanide]	0	62.1	85.6	78.2	61.9	83.6	80.8	95.7	75.4	72.6	46.1	30
Cc1cnc(NC(=O)c2ccc(NN=C(C#N)C#N)cc2)cn1 [Compound 45, (4-(5-methylpyrazin-2-ylcarbamoyl)phenyl)carbonohydrazonoyl dicyanide]	0	140.5	95.5	83.4	80.8	>100	96.7	96.8	>100	>100	>100	1180
